The subject of assay [1] is rat uterine decidualization. Briefly: Rat decidualization assay. The format is in vivo. As to conditions: for EC50 for uterine wet weight (decidual response), individual studies: ovariectomized female Sprague-Dawley rats, once daily for seven days. As to the method:
b. Animals (RACUC Protocol #5002)
The animals are treated once daily for seven days.
Uteri are removed and trimmed of fat.
Body weight: Mean total animal body weight (default-kg)
Decidual response: [(D−C)/C]×100%

Assay [2] deals with alkaline phosphatase activity in T47D cells. The experiment in a line: T47D cell alkaline phosphatase assay. The conditions noted are these: Homo sapiens, agonist mode, read-out: EC50 in the T47D alkaline phosphatase assay, test compounds. It counts as cell-based. Here is the method: 4. T47D Cell Alkaline Phosphatase Assay
The purpose of this assay is to identify progestins or antiprogestins by determining a compound's effect on alkaline phosphatase activity in T47D cells.
a. Culture Medium: DMEM:F12 (1:1) (GIBCO, BRL) supplemented with 5% (v/v) charcoal stripped fetal bovine serum (not heat-inactivated), 100 U/ml penicillin, 100 μg/ml streptomycin, and 2 mM GlutaMax (GIBCO, BRL).
b. Alkaline Phosphatase Assay Buffer:
I. 0.1 M Tris-HCl, pH 9.8, containing 0.2% Triton X-100
II. 0.1 M Tris-HCl, pH 9.8 containing 4 mM p-nitrophenyl phosphate (Sigma).
c. Cell Culture and Treatment:
Frozen T47D cells were thawed in a 37° C. water bath and diluted to 280,000 cells/ml in culture medium. To each well in a 96-well plate (Falcon, Becton Dickinson Labware), 180 μl of diluted cell suspension was added. Twenty μl of reference or test compounds diluted in the culture medium was then added to each well. […] The cells were incubated at 37° C. in a 5% CO2/humidified atmosphere for 24 hr.
d. Alkaline Phosphatase Enzyme Assay:
At the end of treatment, the medium was removed from the plate and […] of assay buffer I was added to each well. The plates were shaken in a titer plate shaker for 15 min. Then 150 μl of assay buffer II was added to each well.
e. Analysis of Results: Analysis of Dose-response Data
For reference and test compounds, a dose response curve is generated for dose (X-axis) vs. the rate of enzyme reaction (slope) (Y-axis). Square root-transformed data are used for analysis of variance and nonlinear dose response curve fitting for both agonist and antagonist modes. Huber weighting is used to downweight the effects of outliers. EC50 or IC50 values are calculated from the retransformed values.

The subject of another assay is T47D cells. The experiment in a line: T47D cell proliferation assay (BrdU incorporation). The format is cell-based. Here is the method:
3. T47D cell Proliferation Assay
The objective of this assay is the determination of progestational and antiprogestational potency by using a cell proliferation assay in T47D cells. A compound's effect on DNA synthesis in T47D cells is measured.
a. Growth Medium: DMEM:F12 (1:1) (GIBCO, BRL) supplemented with 10% (v/v) fetal bovine serum (not heat-inactivated), 100 U/ml penicillin, […], and 2 mM GlutaMax (GIBCO, BRL).
b. Treatment Medium: Minimum Essential Medium (MEM) (#51200-038GIBCO, BRL) phenol red-free supplemented with 0.5% charcoal stripped fetal bovine serum, 100 U/ml penicillin, […] streptomycin, and 2 mM GlutaMax (GIBCO, BRL).
Stock T47 D cells are maintained in growth medium. […]
At the end of BrdU labeling, the medium is removed and BrdU incorporation is measured using a cell proliferation ELISA kit (#RPN 250, Amersham Life Science) according to manufacturer's instructions. […] Then 25 μl of 1 M sulfuric acid is added to each well to stop color reaction and optical density is read in a plate reader at 450 nm within 5 min.
Square root-transformed data are used for analysis of variance and nonlinear dose response curve fitting for both agonist and antagonist modes. […] EC50 or IC50 values are calculated from the retransformed values. […]
On the technique in general: Incorporation of labelled thymidine or its analogues reports DNA synthesis.

Another assay deals with eczema. Briefly: Conditioning the skin of a human patient with severe eczema. The format is in vivo. The conditions noted are these: about 50 mg daily. As to the method:
A human patient having a severe form of eczema is treated according to the present invention. Specifically, about 50 mg of 5-(4,4-dimethyl-2-thioxo-1,4-dihydro-2H-3,1-benzoxazin-6-yl)-1-methyl-1H-pyrrole-2-carbonitrile is delivered to the patient daily.

The subject of another assay is acne vulgaris. The experiment in a line: Treatment of acne vulgaris in a human patient. The format is in vivo. As to conditions: oral tablet about 20 mg daily. As to the method:
A human patient having acne vulgaris is treated according to the present invention. Specifically, 5-(4,4-dimethyl-2-thioxo-1,4-dihydro-2H-3,1-benzoxazin-6-yl)-1-methyl-1H-pyrrole-2-carbonitrile is orally delivered to the patient daily. Delivery is in the form of a tablet formulated to contain about 20 mg of 5-(4,4-dimethyl-2-thioxo-1,4-dihydro-2H-3,1-benzoxazin-6-yl)-1-methyl-1H-pyrrole-2-carbonitrile.

For the next assay, the target named is T1, androgen receptor (AR) (Mus musculus, UniProt P19091).
T1 construct: L929 cells which express the AR but not the PR; endogenous in cells; host or cells: L929 cells infected with an adenovirus PRE-tk-luciferase reporter
T1 sequence (P19091 1-899): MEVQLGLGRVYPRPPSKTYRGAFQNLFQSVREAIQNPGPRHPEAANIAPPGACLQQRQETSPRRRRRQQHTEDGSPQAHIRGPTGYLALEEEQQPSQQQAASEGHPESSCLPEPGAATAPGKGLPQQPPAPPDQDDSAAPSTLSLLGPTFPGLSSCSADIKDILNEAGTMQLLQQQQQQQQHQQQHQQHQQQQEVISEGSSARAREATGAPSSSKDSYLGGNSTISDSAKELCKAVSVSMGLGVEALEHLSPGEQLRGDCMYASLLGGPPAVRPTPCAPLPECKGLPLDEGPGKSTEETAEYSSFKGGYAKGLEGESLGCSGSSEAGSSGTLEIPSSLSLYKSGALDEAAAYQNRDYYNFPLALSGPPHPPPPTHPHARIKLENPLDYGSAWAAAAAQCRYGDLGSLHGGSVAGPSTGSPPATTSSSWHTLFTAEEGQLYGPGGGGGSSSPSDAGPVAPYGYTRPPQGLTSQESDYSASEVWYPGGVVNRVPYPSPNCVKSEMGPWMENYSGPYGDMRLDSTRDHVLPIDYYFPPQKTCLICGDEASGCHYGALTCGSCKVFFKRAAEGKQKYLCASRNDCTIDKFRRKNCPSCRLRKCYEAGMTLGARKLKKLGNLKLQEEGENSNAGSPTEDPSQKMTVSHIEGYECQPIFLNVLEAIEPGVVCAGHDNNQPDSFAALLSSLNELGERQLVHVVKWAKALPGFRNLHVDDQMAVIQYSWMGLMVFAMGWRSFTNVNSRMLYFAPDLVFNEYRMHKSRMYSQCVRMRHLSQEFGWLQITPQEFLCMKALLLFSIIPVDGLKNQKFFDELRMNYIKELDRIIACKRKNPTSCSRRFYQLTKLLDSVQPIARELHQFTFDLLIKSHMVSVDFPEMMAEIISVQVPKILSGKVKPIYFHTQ
Briefly: Androgen receptor agonistic/antagonistic activity, PRE-tk-luciferase reporter in L929 cells. The format is cell-based. Here is the method: The androgen receptor (AR) agonistic and antagonistic activity of the compositions of the invention in the L929 cells which express the AR but not the PR was evaluated as described in Zhang et al., Steroids, 65(10-11): 637-643 (October-November 2000).
Cells were plated in 96-well plates at 25,000 cells/well in DMEM (BioWhittaker) with 10% (v/v) fetal bovine serum (FBS). The next day, cells were infected with the adenovirus PRE-tk-luciferase reporter construct (2×10^9 pfu/ml particles) and kept in DMEM containing 10% charcoal stripped FBS for an additional 24 hours. […] To test the anti-androgenic activity, cells were co-treated with 3 nM DHT. Luciferase activity was measured 24 hours following the treatment.

“And” between values parts separate entries of the source, which are not always exact repeats. Equal values may be shown once.

Consider 13 compounds from patent US7268149B2 (Wyeth, priority 2002, dated 2007).

As to `CC(=O)O[C@]1(C(C)=O)CC[C@H]2[C@@H]3C[C@H](C)C4=CC(=O)CC[C@]4(C)[C@H]3CC[C@@]21C` [MPA, medroxyprogesterone acetate], the “EC50 for uterine wet weight (decidual response), individual studies” value (shortened to “EC50 for uterine wet weight”) in assay [1] (s.c.) is 0.42 mg/kg, s.c. and 0.39 mg/kg, s.c. (2×).

Turning to `Cn1c(C#N)ccc1-c1ccc2c(c1)C1(CCCCC1)OC(=S)N2` [Example 4, 1-Methyl-5-(2-thioxo-1,2-dihydrospiro[3,1-benzoxazine-4,1′-cyclohexan]-6-yl)-1H-pyrrole-2-carbonitrile], the EC50 in assay [2] was determined as 0.3 nM.

Consider `CCC1(CC)OC(=S)Nc2ccc(-c3ccc(C#N)n3C)cc21` [Example 2, 5-(4,4-Diethyl-2-thioxo-1,4-dihydro-2H-3,1-benzoxazin-6-yl)-1-methyl-1H-pyrrole-2-carbonitrile], for which the EC50 in assay [2] came to 0.1 nM.

`CCC1(C)OC(=S)Nc2ccc(-c3ccc(C#N)n3C)cc21` (centres unmarked) [Example 3, 5-(4-ethyl-4-methyl-2-thioxo-1,4-dihydro-2H-3,1-benzoxazin-6-yl)-1-methyl-1H-pyrrole-2-carbonitrile]: the EC50 in assay [2] was 0.1 nM.

For the compound `Cn1c(C#N)ccc1-c1ccc2c(c1)C1(CCCC1)OC(=S)N2` [Example 5, 1-Methyl-5-(2-thioxo-1,2-dihydrospiro [3,1-benzoxazine-4,1′-cyclopentan]-6-yl)-1H-pyrrole-2-carbonitrile], the EC50 in assay [2] is 0.5 nM.

As to `CC(=O)[C@H]1CC[C@H]2[C@@H]3CCC4=CC(=O)CC[C@]4(C)[C@H]3CC[C@]12C` [Progesterone], the “EC50 for uterine wet weight” value in assay [1] (s.c.) was 5.50 mg/kg, s.c.

Regarding `Cn1c(C#N)ccc1-c1ccc2c(c1)C(C(F)(F)F)(C(F)(F)F)OC(=S)N2` [Example 6, 1-Methyl-5-[2-thioxo-4,4-bis(trifluoromethyl)-1,4-dihydro-2H-3,1-benzoxazin-6-yl]-1H-pyrrole-2-carbonitrile], the EC50 in assay [2] was less than 10 nM.

In the case of `CC#C[C@]1(O)CC[C@H]2[C@@H]3CCC4=CC(=O)CCC4=C3[C@@H](c3ccc(N(C)C)cc3)C[C@@]21C` [RU486], the “IC50 for uterine weight (decrease in EC50 progesterone induced decidual response)” value in assay [1] (ovariectomized rats, p.o., with EC50 dose of progesterone) is 0.21 mg/kg, p.o. and 0.14 mg/kg, p.o. For the same compound, the IC50 in the assay on T47D cells (read-out: IC50 (half-maximal decrease in trimegestone induced BrdU incorporation), antagonist mode, in the presence of 0.03 nM trimegestone) was 0.016 nM and 0.018 nM.

Turning to `Cn1c(C#N)ccc1-c1ccc2c(c1)C(C)(C)OC(=S)N2` [5-(4,4-dimethyl-2-thioxo-1,4-dihydro-2H-3,1-benzoxazin-6-yl)-1-methyl-1H-pyrrole-2-carbonitrile], the Eczema outcome with eczema (after about 12 weeks) is reported as “improvement in the eczema is observed”. The “Dryness of the skin” value in the assay on eczema (thirty days after the treatment) is listed as “a decrease in the dryness affected to the skin is noticed”. In the assay with acne vulgaris (after about 24 weeks), the Acne vulgaris outcome is recorded as “improvement in the acne vulgaris is observed”. In addition, in the assay on acne vulgaris (forty-five to sixty days after the treatment), the “Presence of lesions caused by acne vulgaris” value is “a decrease in the presence of lesions caused by acne vulgaris is noticed”. For the same compound, on androgen receptor (AR) (at the maximum concentration tested (10 nM)), the AR agonistic activity entry is reported as “only marginal agonistic activity”. Further, the AR antagonistic activity result at androgen receptor (AR) (nine point dose response, co-treated with 3 nM DHT) is recorded as “significant antagonistic activity”.

With `C#C[C@]1(O)CC[C@H]2[C@@H]3CCC4=CC(=O)CC[C@@H]4[C@H]3CC[C@@]21CC` [Levonorgestrel], in assay [1] (s.c.), the “EC50 for uterine wet weight” value was 0.08 mg/kg, s.c. and 0.12 mg/kg, s.c. and 0.09 mg/kg, s.c. (2×).

Consider `Cn1c(C#N)ccc1-c1ccc2c(c1)C1(CCC1)OC(=S)N2` [Example 1, 1-Methyl-5-(2-thioxo-1,2-dihydrospiro[3,1-benzoxazine-4,1′-cyclobutan]-6-yl)-1H-pyrrole-2-carbonitrile], for which, in assay [2], the EC50 worked out at 0.5 nM.

Consider `C#C[C@]1(O)CC[C@H]2[C@@H]3CCC4=CC(=O)CC[C@@H]4[C@H]3C(=C)C[C@@]21CC` [3-Ketodesogestrel], for which the “Estimated average EC50 for uterine weight (decidual response)” value in assay [1] (average of dose-response curves, ovariectomized rats, s.c.) is reported as 0.10 mg/kg, s.c. Further, in assay [1] (s.c.), the “EC50 for uterine wet weight” value is 0.10 mg/kg, s.c. and 0.06 mg/kg, s.c. and 0.11 mg/kg, s.c.

For the compound `C[C@H](O)C(=O)[C@@]1(C)CC[C@H]2[C@@H]3CCC4=CC(=O)CCC4=C3CC[C@@]21C` [Trimegestone], the EC50 in the assay on T47D cells (agonist mode, individual studies, read-out: EC50 (half-maximal increase in BrdU incorporation)) is 0.017 nM and 0.014 nM and 0.019 nM.
